From patent publication US11541105B2, “Compositions and methods for disrupting biofilm formation and maintenance” (The Research Foundation for the State University of new York, priority 2018, dated 2023)

How the values were obtained:
[1] = system: P. aeruginosa biofilms; assay: Biofilm dispersion in 24-well plates, crystal violet staining of remaining biofilm biomass; format: cell-based, Pseudomonas aeruginosa; settings: controls: heat-inactivated PDH increasing concentrations; cofactors; acetyl-CoA 0.2 mM; NADH 2 mM; lactate 10 mM
Description: P. aeruginosa biofilms grown for 4 days in 24-well plates were exposed to pyruvate-depleting conditions. This was accomplished by exposing biofilms to increasing concentration of the enzyme pyruvate dehydrogenase (PDH) having a specific activity of 0.57 U/mg. PDH catalyzes the conversion of pyruvate to acetyl-CoA in the presence of CoA and NAD^+. Specifically, biofilms were exposed to 5, 10, and 20 mU (8.7, 17.4, and 32.8 mg enzyme) of PDH in the presence of NAD^+ and CoA. Biofilms grown in LB but left untreated were used as controls. Following overnight incubation, the remaining biofilm was stained using crystal violet.
Biofilms were grown in a 24-well plate system modified from the procedure described by Caiazza and O'Toole (2004) to elucidate the role of pyruvate in biofilm formation and biofilm dispersion.
Overnight cultures grown in LB medium were adjusted to an OD600 of 0.05 in fresh 5-fold diluted LB VBMM and grown at 37° C. and rotated at 220 r.p.m. in 24-well microtiter plates at a 45° angle, ensuring that the bottom of the wells is at the air-liquid interface, with the medium exchanged every 12 h.
For biofilm dispersion, biofilms were first grown for 4 days after which time the growth medium was supplemented with 10 mU porcine pyruvate dehydrogenase, cofactors (1 mM b-NAD, 1 mM sodium Co-A, 20 μM TPP) and allowed to incubate for an additional 16 h.

[2] = system: P. aeruginosa biofilms; assay: Microscopy (confocal, brightfield) of biofilm architecture and microcolony void formation; format: cell-based, Pseudomonas aeruginosa; settings: 4-day biofilms, PDH 10 mU plus 500 uM SNP as NO source, 16 h
Source text: To determine how exposure to PDH accomplished a reduction in the biofilm biomass, the remaining biofilm architecture was visually analyzed by confocal microscopy. Relative to untreated biofilms, biofilms exposed to PDH were not only characterized by an overall reduced biofilm biomass but by microcolonies having central voids (FIGS. 2E3 and 2F2). Void formation has previously linked with biofilm dispersion, a process in which sessile, surface-attached organisms liberate themselves from the biofilm to return to the planktonic state. […] In contrast, the vast majority of microcolonies by untreated biofilms were intact (FIG. 2E1), with only less than 8% of the microcolonies featuring central void formation (FIG. 2G). […]
Differences in the biofilm architecture were visualized by crystal violet staining or microscopy (brightfield, confocal laser scanning). Differences in drug susceptibility were evaluated by viability count.
FIGS. 15A-15F show the effect of PDH nanoparticles (NP) on biofilms. […] Biofilm biomass was quantitatively determined by confocal microscopy and COMSTAT analysis prior/post 24 h PDH treatment. […]
Biofilms were grown for 4 days in 24-well polystyrene plates in five-fold diluted LB. […] Number of microcolonies as percent of the total colonies counted per treatment group is shown. […]

[3] = system: P. aeruginosa ATCC 27312; assay: Porcine burn wound biofilm infection model; format: in vivo, Pseudomonas aeruginosa
Description: The well-known clinical burn wound isolate P. aeruginosa ATCC 27312 was employed.
Burn wounds were inoculated with 25 μl of a standardized P. aeruginosa suspension harboring 10^6 CFU/ml and allowed to establish biofilms for 24 h. Infected wounds were subsequently treated daily with 100 and 200 mU PDH in the absence of presence of 100 μg/ml tobramycin. Untreated wounds and wounds only exposed to carrier solution were used as controls. Following 3 and 6 days of treatment, bacterial cells present in wounds were harvested using a flush and scrub technique that separates biofilm bacteria from planktonic bacteria, by flushing the non-adherent (planktonic) bacteria off the wound, followed by scrubbing of the wound to remove adherent biofilm-associated bacteria from the wound bed.
Second degree porcine burn wounds were infected with P. aeruginosa ATCC® 27312™. […] Then, bacterial cells were removed from the wounds and the number of viable cells, as shown in (CFU) per wound determined using viability counts. […] Experiments are representative data obtained using 3 wounds per treatment group (n=3). Error bars represent standard deviation.

[4] = system: P. aeruginosa biofilms; assay: Biofilm susceptibility assay, viability count; format: cell-based, Pseudomonas aeruginosa; settings: 4-day biofilms, tobramycin 100 μg/ml, PDH 10 mU where present, overnight
Description: It is well established that planktonic cells are more susceptible to antimicrobial agents than their counterparts growing as a biofilm, and that dispersion coincides with bacteria transitioning to the planktonic mode of growth. […] P. aeruginosa biofilms grown for 4 days in 24-well plates were exposed to 100 μg/ml tobramycin in the absence of presence of PDH. Following overnight incubation, the number of viable biofilm cells were determined using viability count. […] Tobramycin in the presence of 10 mU PDH coincided with a reduction in the biofilm biomass to 3.5×10^3 cells/biofilm (FIG. 12A), with the reduction in the viable cells being equivalent to an overall 5.9-log reduction in the biofilm biomass relative to untreated biofilms. […] For susceptibility assays, biofilms were grown as for dispersion assays, but following 4 days of growth, the growth medium was supplemented the aminoglycoside antibiotic tobramycin (100 μg/ml), 10 mU porcine pyruvate dehydrogenase, and cofactors (1 mM b-NAD, 1 mM sodium Co-A, 20 μM TPP). Untreated biofilms or biofilms only exposed to cofactors alone were used as controls. Differences in the biofilm architecture were visualized by crystal violet staining or microscopy (brightfield, confocal laser scanning). Differences in drug susceptibility were evaluated by viability count.

NC(=O)c1ccc[n+]([C@@H]2O[C@H](COP(=O)([O-])OP(=O)(O)OC[C@H]3O[C@@H](n4cnc5c(N)ncnc54)[C@H](O)[C@@H]3O)[C@@H](O)[C@H]2O)c1 [NAD+]
effect on biofilm biomass relative to untreated biofilms [1]: no effect

NC(=O)C1=CN([C@@H]2O[C@H](COP(=O)(O)OP(=O)(O)OC[C@H]3O[C@@H](n4cnc5c(N)ncnc54)[C@H](O)[C@@H]3O)[C@@H](O)[C@H]2O)C=CC1 [NADH]
effect on biofilm biomass relative to untreated biofilms [1]: did not result in increased biofilm biomass accumulation

CC(=O)SCCNC(=O)CCNC(=O)[C@H](O)C(C)(C)COP(=O)(O)OP(=O)(O)OC[C@H]1O[C@@H](n2cnc3c(N)ncnc32)[C@H](O)[C@@H]1OP(=O)(O)O [acetyl-CoA]
effect on biofilm biomass relative to untreated biofilms [1]: did not result in increased biofilm biomass accumulation

CC(O)C(=O)O (stereo not drawn) [lactate]
effect on biofilm biomass relative to untreated biofilms [1]: no difference

[N]=O [nitric oxide]
effect on PDH-induced dispersion of biofilms (microcolonies with void formation) [2]: can enhance

NC[C@H]1O[C@H](O[C@H]2[C@H](O)[C@@H](O[C@H]3O[C@H](CO)[C@@H](O)[C@H](N)[C@H]3O)[C@H](N)C[C@@H]2N)[C@H](N)C[C@@H]1O [tobramycin]
log reduction of P. aeruginosa biofilms present in porcine burn wounds ([3]; as stated in the summary, tobramycin with or without pyruvate-depleting conditions): 2.5 log
log reduction in viable biofilm cells (scrub) relative to untreated ([3]; tobramycin 100 μg/ml daily): 2 log
log reduction of the biofilm biomass (viable cells) relative to untreated [4]: 2.5 log
number of viable cells remaining ([4]; untreated 2.4×10^8): 1.2×10^5 cells per biofilm
